Data as given in PubChem BioAssay AID743496 (The Scripps Research Institute Molecular Screening Center, 2014).
Activity calls are given as the source filed them. The rule behind the calls is not given here.

Each molecule was assayed on Ga16-expressing cells, calcium fluorescence, counterscreen for TAAR1 agonists (assay: nonselective Ga16 agonists, potency, SAR follow-up, counter-screen for TAAR1 agonist project, cell-based, fluorescence, dose response, MedChem round 1 (AID 743496)).

| Structure (SMILES) | EC50 |
| --- | --- |
| O=C(CCN1C[C@@H](C(=O)O)[C@H](c2ccccc2)C1)NCc1cccs1 | > 29.9 µM (inactive) |
| O=C(CCN1C[C@@H](C(=O)O)[C@H](c2ccccc2)C1)NC1CCCC1 | > 29.9 µM (inactive) |
| CC(CN1CCC(c2ccccc2)C1)C(=O)c1ccc2c(c1)OCCO2 (stereo unspecified) | > 29.9 µM (inactive) |
| O=C(CCN1C[C@@H](C(=O)O)[C@H](c2cccc(F)c2)C1)NC1CC1 | > 29.9 µM (inactive) |
| O=C(CCN1CCC(c2ccccc2)C1)c1ccccc1 (stereo unspecified) | > 29.9 µM (inactive) |
| CC1CN(CCC(=O)c2ccc3c(c2)OCCO3)CC1c1ccccc1 (stereo unspecified) | > 29.9 µM (inactive) |
| O=C(CCN1CCC(O)(c2ccccc2)C1)c1ccc2c(c1)OCCO2 (stereo unspecified) | > 29.9 µM (inactive) |
| Cc1ccc(C(=O)CCN2CCC(c3ccccc3)C2)cc1 (stereo unspecified) | > 29.9 µM (inactive) |
| NC(=O)CCN1C[C@H](c2ccccc2)[C@@H]2[C@H]1C1CCN2CC1 | > 29.9 µM (inactive) |
| CC(CN1CCCC1Cc1ccccc1)C(=O)c1ccc2c(c1)OCCO2 (stereo unspecified) | > 29.9 µM (inactive) |
| O=C(CCN1CCC(O)(c2ccc(F)cc2)C1)c1ccc2c(c1)OCCO2 (stereo unspecified) | > 29.9 µM (inactive) |
